From ChEMBL document CHEMBL5303573, “Mapping human microbiome drug metabolism by gut bacteria and their genes” (Nature, 2019)

Key:
[1] = bacteroides intestinalis, 12 h, 2 µM
Description: The drug is tested on Bacteroides intestinalis strain: DSM17393 for biotransformation. The drug concentrations were measured before and after a 12-h incubation by liquid-chromatography-coupled mass spectrometry (LC–MS)

[2] = The drug is tested on Bacteroides fragilis strain: ATCC43859 for biotransformation. The drug concentrations were measured before and after a 12-h incubation by liquid-chromatography-coupled mass spectrometry (LC–MS); conditions: 2 µM
[3] = The drug is tested on Bacteroides pectinophilus strain: ATCC43243 for biotransformation. The drug concentrations were measured before and after a 12-h incubation by liquid-chromatography-coupled mass spectrometry (LC–MS); conditions: 2 µM
[4] = enterocloster bolteae, 12 h, 2 µM
Description: The drug is tested on Clostridium bolteae strain: ATCCBAA-613 for biotransformation. The drug concentrations were measured before and after a 12-h incubation by liquid-chromatography-coupled mass spectrometry (LC–MS)

[5] = The drug is tested on Eubacterium ventriosum strain: ATCC27560 for biotransformation. The drug concentrations were measured before and after a 12-h incubation by liquid-chromatography-coupled mass spectrometry (LC–MS); type: ADME; parameters: dose 2 uM, timepoint 0 vs 12 hours; conditions: 2 µM
[6] = The drug is tested on Escherichia coli strain: BW25113 for biotransformation. The drug concentrations were measured before and after a 12-h incubation by liquid-chromatography-coupled mass spectrometry (LC–MS); conditions: 2 µM
[7] = The drug is tested on Clostridium symbiosum strain: ATCC14940 for biotransformation. The drug concentrations were measured before and after a 12-h incubation by liquid-chromatography-coupled mass spectrometry (LC–MS); conditions: 2 µM
[8] = The drug is tested on Edwardsiella tarda strain: ATCC23685 for biotransformation. The drug concentrations were measured before and after a 12-h incubation by liquid-chromatography-coupled mass spectrometry (LC–MS); conditions: 2 µM
[9] = The drug is tested on Ruminococcus lactaris strain: ATCC29176 for biotransformation. The drug concentrations were measured before and after a 12-h incubation by liquid-chromatography-coupled mass spectrometry (LC–MS); conditions: 2 µM
[10] = The drug is tested on Bacteroides caccae strain: ATCC43185 for biotransformation. The drug concentrations were measured before and after a 12-h incubation by liquid-chromatography-coupled mass spectrometry (LC–MS); conditions: 2 µM
[11] = bacteroides fragilis, 12 h, 2 µM
Description: The drug is tested on Bacteroides fragilis strain: 3397 (T10) for biotransformation. The drug concentrations were measured before and after a 12-h incubation by liquid-chromatography-coupled mass spectrometry (LC–MS)

[12] = bacteroides thetaiotaomicron, 12 h, 2 µM
Description: The drug is tested on Bacteroides thetaiotaomicron strain: 7330 for biotransformation. The drug concentrations were measured before and after a 12-h incubation by liquid-chromatography-coupled mass spectrometry (LC–MS)

[13] = The drug is tested on Ruminococcus gnavus strain: ATCC29149 for biotransformation. The drug concentrations were measured before and after a 12-h incubation by liquid-chromatography-coupled mass spectrometry (LC–MS); conditions: mediterraneibacter gnavus, 2 µM
[14] = parabacteroides johnsonii, 12 h, 2 µM
Description: The drug is tested on Parabacteroides johnsonii strain: DSM18315 for biotransformation. The drug concentrations were measured before and after a 12-h incubation by liquid-chromatography-coupled mass spectrometry (LC–MS)

[15] = The drug is tested on Providencia rettgeri strain: DSM1131 for biotransformation. The drug concentrations were measured before and after a 12-h incubation by liquid-chromatography-coupled mass spectrometry (LC–MS); type: ADME; parameters: dose 2 uM, timepoint 0 vs 12 hours; conditions: 2 µM
[16] = The drug is tested on Subdoligranulum variabile strain: DSM15176 for biotransformation. The drug concentrations were measured before and after a 12-h incubation by liquid-chromatography-coupled mass spectrometry (LC–MS); conditions: 2 µM
[17] = The drug is tested on Coprococcus comes strain: ATCC27758 for biotransformation. The drug concentrations were measured before and after a 12-h incubation by liquid-chromatography-coupled mass spectrometry (LC–MS); type: ADME; parameters: dose 2 uM, timepoint 0 vs 12 hours; conditions: 2 µM
[18] = The drug is tested on Alistipes indistinctus strain: DSM22520 for biotransformation. The drug concentrations were measured before and after a 12-h incubation by liquid-chromatography-coupled mass spectrometry (LC–MS); conditions: 2 µM
[19] = The drug is tested on Enterobacter cancerogenus strain: ATCC35316 for biotransformation. The drug concentrations were measured before and after a 12-h incubation by liquid-chromatography-coupled mass spectrometry (LC–MS); conditions: 2 µM
[20] = The drug is tested on Clostridium ramosum strain: DSM1402 for biotransformation. The drug concentrations were measured before and after a 12-h incubation by liquid-chromatography-coupled mass spectrometry (LC–MS); conditions: thomasclavelia ramosa, 2 µM

Bacterial Biotransformation [1] | Bacterial Biotransformation [2] | Bacterial Biotransformation [3] | Bacterial Biotransformation [4] | Bacterial Biotransformation [5] | Bacterial Biotransformation [6] | Bacterial Biotransformation [7] | Bacterial Biotransformation [8] | Bacterial Biotransformation [9] | Bacterial Biotransformation [10] | Bacterial Biotransformation [11] | Bacterial Biotransformation [12] | Bacterial Biotransformation [13] | Bacterial Biotransformation [14] | Bacterial Biotransformation [15] | Bacterial Biotransformation [16] | Bacterial Biotransformation [17] | Bacterial Biotransformation [18] | Bacterial Biotransformation [19] | Bacterial Biotransformation [20] | SMILES
Compound NOT metabolized | Compound NOT metabolized | Compound NOT metabolized | Compound NOT metabolized | Compound NOT metabolized | Compound NOT metabolized | Compound NOT metabolized | Compound NOT metabolized | Compound NOT metabolized | Compound NOT metabolized | Compound NOT metabolized | Compound NOT metabolized | Compound NOT metabolized | Compound NOT metabolized | Compound NOT metabolized | Compound NOT metabolized | Compound NOT metabolized | Compound NOT metabolized | Compound NOT metabolized |  | Cc1cc2c(cc1S(N)(=O)=O)S(=O)(=O)CCC2
Compound NOT metabolized | Compound NOT metabolized | Compound NOT metabolized | Compound NOT metabolized | Compound NOT metabolized | Compound NOT metabolized | Compound NOT metabolized | Compound NOT metabolized | Compound NOT metabolized | Compound NOT metabolized | Compound NOT metabolized | Compound NOT metabolized | Compound NOT metabolized |  | Compound NOT metabolized | Compound NOT metabolized | Compound NOT metabolized | Compound NOT metabolized | Compound NOT metabolized |  | O=C(CCCN1CCC(O)(c2ccc(Cl)cc2)CC1)c1ccc(F)cc1 [HALOPERIDOL]
Compound NOT metabolized | Compound NOT metabolized | Compound NOT metabolized | Compound NOT metabolized | Compound NOT metabolized | Compound NOT metabolized | Compound NOT metabolized | Compound NOT metabolized | Compound NOT metabolized | Compound NOT metabolized | Compound NOT metabolized | Compound NOT metabolized | Compound NOT metabolized | Compound NOT metabolized | Compound NOT metabolized | Compound NOT metabolized | Compound NOT metabolized | Compound NOT metabolized | Compound NOT metabolized |  | N#Cc1ccc(C(c2ccc(C#N)cc2)n2cncn2)cc1 [LETROZOLE]
Compound metabolized | Compound metabolized | Compound NOT metabolized | Compound NOT metabolized | Compound NOT metabolized | Compound metabolized | Compound NOT metabolized | Compound NOT metabolized | Compound NOT metabolized |  | Compound metabolized | Compound metabolized | Compound NOT metabolized | Compound metabolized |  | Compound NOT metabolized | Compound NOT metabolized | Compound metabolized | Compound NOT metabolized | Compound NOT metabolized | CC(=O)O[C@]1(C(C)=O)CC[C@H]2[C@@H]3C=C(C)C4=CC(=O)CC[C@]4(C)[C@H]3CC[C@@]21C [MEGESTROL ACETATE]
Compound NOT metabolized | Compound NOT metabolized | Compound NOT metabolized |  | Compound NOT metabolized | Compound NOT metabolized | Compound NOT metabolized | Compound NOT metabolized | Compound NOT metabolized | Compound NOT metabolized | Compound NOT metabolized | Compound NOT metabolized | Compound NOT metabolized | Compound NOT metabolized |  | Compound NOT metabolized |  | Compound NOT metabolized | Compound NOT metabolized | Compound NOT metabolized | CO[C@]12C[C@@H](COC(=O)c3cncc(Br)c3)CN(C)[C@@H]1Cc1cn(C)c3cccc2c13 [NICERGOLINE]
 | Compound NOT metabolized |  |  | Compound NOT metabolized |  | Compound NOT metabolized | Compound NOT metabolized | Compound NOT metabolized | Compound NOT metabolized | Compound NOT metabolized | Compound NOT metabolized | Compound NOT metabolized | Compound NOT metabolized |  | Compound NOT metabolized |  | Compound NOT metabolized | Compound NOT metabolized | Compound NOT metabolized | CN(C(=O)CN(CCO)CC(=O)N(C)C(C)(C)Cc1ccccc1)C(C)(C)Cc1ccccc1 [OXETHAZAINE]

SMILES | Bacterial Biotransformation [1] | Bacterial Biotransformation [2] | Bacterial Biotransformation [3] | Bacterial Biotransformation [4] | Bacterial Biotransformation [5] | Bacterial Biotransformation [6] | Bacterial Biotransformation [7] | Bacterial Biotransformation [8] | Bacterial Biotransformation [9] | Bacterial Biotransformation [10] | Bacterial Biotransformation [11] | Bacterial Biotransformation [12] | Bacterial Biotransformation [13] | Bacterial Biotransformation [14] | Bacterial Biotransformation [15] | Bacterial Biotransformation [16] | Bacterial Biotransformation [17] | Bacterial Biotransformation [18] | Bacterial Biotransformation [19] | Bacterial Biotransformation [20]
CN1CCN(C2=Nc3ccccc3Oc3ccc(Cl)cc32)CC1.O=C(O)CCC(=O)O [LOXAPINE SUCCINATE] | Compound NOT metabolized | Compound NOT metabolized | Compound NOT metabolized | Compound NOT metabolized | Compound NOT metabolized | Compound NOT metabolized | Compound NOT metabolized |  | Compound NOT metabolized | Compound NOT metabolized | Compound NOT metabolized | Compound NOT metabolized | Compound NOT metabolized | Compound NOT metabolized | Compound NOT metabolized | Compound NOT metabolized | Compound NOT metabolized | Compound NOT metabolized | Compound NOT metabolized | 
CC(=O)CCCCn1c(=O)c2c(ncn2C)n(C)c1=O [PENTOXIFYLLINE] | Compound NOT metabolized | Compound NOT metabolized |  |  | Compound NOT metabolized | Compound NOT metabolized | Compound NOT metabolized | Compound NOT metabolized | Compound NOT metabolized | Compound NOT metabolized | Compound NOT metabolized | Compound NOT metabolized | Compound NOT metabolized | Compound NOT metabolized |  | Compound NOT metabolized | Compound NOT metabolized | Compound NOT metabolized | Compound NOT metabolized | 
CCCN1C[C@H](CSC)C[C@@H]2c3cccc4[nH]cc(c34)C[C@H]21.CS(=O)(=O)O [PERGOLIDE MESYLATE] | Compound NOT metabolized | Compound NOT metabolized | Compound NOT metabolized | Compound NOT metabolized | Compound NOT metabolized | Compound NOT metabolized | Compound NOT metabolized |  |  | Compound NOT metabolized | Compound NOT metabolized | Compound NOT metabolized | Compound NOT metabolized | Compound NOT metabolized |  | Compound NOT metabolized | Compound NOT metabolized | Compound NOT metabolized | Compound NOT metabolized | Compound NOT metabolized
